Measurements reported in US20080009418A1, “Selective Inhibitors” (Alchemia LTD., priority 2004, published 2008).

Experiments:
[1] = target: T1, Human δ-opioid (DOP) (Homo sapiens, UniProt P41143); assay: Radioligand binding, human δ-opioid (DOP) membranes, FlashPlate, [3H]-Bremazocine; conditions: compound at 10 μM; for A1 radioligand binding inhibition: human δ-opioid (DOP) membranes
T1 construct: purchased Perkin Elmer Biosignal
Method in brief: (§1)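 Cloned human receptor membranes were coated onto FlashPlate wells and incubated with radioligand and compound (added from a 0.5 mM DMSO daughter plate) for 1 hour at room temperature in the dark. Scintillation counting gave percent inhibition, with DMSO defining total and reference ligand defining non-specific binding.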

[2] = target: T2, Human κ-Opioid (KOP) (Homo sapiens, UniProt P41145); assay: Radioligand binding, human κ-opioid (KOP) membranes, filtration, [3H]-Diprenorphine; conditions: compound at 10 μM; for A2 radioligand binding inhibition: human κ-opioid (KOP) membranes
T2 construct: purchased Perkin Elmer Biosignal
Method in brief: (§2)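 Membranes from cloned human receptors were incubated with compound and radioligand for 1 hour at room temperature. Bound ligand was collected on 0.3% PEI-soaked filters, washed with cold 50 mM Tris-HCl pH 7.4, and counted by scintillation. Percent inhibition was computed against DMSO totals and reference-ligand nonspecific wells.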

[3] = target: T3, Human Melanocortin (MC3) (Homo sapiens, UniProt P41968); assay: Radioligand binding, human melanocortin MC3 membranes, FlashPlate, [125I]-NDP-αMSH; conditions: compound at 10 μM; for A3 radioligand binding inhibition: human melanocortin MC3 membranes
T3 construct: purchased Perkin Elmer Biosignal
Method in brief: as §1

[4] = target: T4, Human Melanocortin (MC4) (Homo sapiens, UniProt P32245); assay: Radioligand binding, human melanocortin MC4 membranes, FlashPlate, [125I]-NDP-αMSH; conditions: compound at 10 μM; for A4 radioligand binding inhibition: human melanocortin MC4 membranes
T4 construct: purchased Perkin Elmer Biosignal
Method in brief: as §1

[5] = target: T5, Human melanocortin (MC5) (Homo sapiens, UniProt P33032); assay: Radioligand binding, human melanocortin MC5 membranes, FlashPlate, [125I]-NDP-αMSH; conditions: compound at 10 μM; for A5 radioligand binding inhibition: human melanocortin MC5 membranes
T5 construct: purchased Perkin Elmer Biosignal
Method in brief: as §1

[6] = target: T6, Human melanin-concentrating hormone (MCH1) (Homo sapiens, UniProt Q99705); assay: Radioligand binding, human melanin-concentrating hormone MCH1 membranes, FlashPlate, [125I]-S36057; conditions: compound at 10 μM; for A6 radioligand binding inhibition: human MCH1 membranes
T6 construct: purchased Perkin Elmer Biosignal
Method in brief: as §1

[7] = target: T7, Human μ-opioid (MOP) (Homo sapiens, UniProt P35372); assay: Radioligand binding, human μ-opioid (MOP) membranes, FlashPlate, [3H]-Naloxone; conditions: compound at 10 μM; for A7 radioligand binding inhibition: human μ-opioid (MOP) membranes
T7 construct: purchased Perkin Elmer Biosignal
Method in brief: as §1

[8] = target: T8, Human neurokinin (NK1) (Homo sapiens, UniProt P25103); assay: Radioligand binding, human neurokinin NK1 membranes, filtration, [125I]-Substance P; conditions: compound at 10 μM; for A8 radioligand binding inhibition: human neurokinin NK1 membranes
T8 construct: purchased Perkin Elmer Biosignal
Method in brief: as §2

[9] = target: T9, Human neuropeptide Y (NPY-Y1) (Homo sapiens, UniProt P25929); assay: Radioligand binding, human neuropeptide Y NPY-Y1 membranes, FlashPlate, [125I]-PYY; conditions: compound at 10 μM; for A9 radioligand binding inhibition: human NPY-Y1 membranes
T9 construct: purchased Perkin Elmer Biosignal
T9 sequence (P25929 1-384): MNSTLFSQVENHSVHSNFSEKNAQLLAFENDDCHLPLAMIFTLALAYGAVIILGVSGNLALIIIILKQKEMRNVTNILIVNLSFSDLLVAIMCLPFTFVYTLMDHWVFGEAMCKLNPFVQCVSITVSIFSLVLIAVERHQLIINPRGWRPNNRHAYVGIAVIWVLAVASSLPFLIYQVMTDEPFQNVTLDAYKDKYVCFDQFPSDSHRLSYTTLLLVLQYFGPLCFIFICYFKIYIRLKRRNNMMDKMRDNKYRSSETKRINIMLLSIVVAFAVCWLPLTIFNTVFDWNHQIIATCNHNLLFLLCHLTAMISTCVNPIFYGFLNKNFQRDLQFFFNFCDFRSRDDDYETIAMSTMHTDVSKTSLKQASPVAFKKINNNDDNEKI
Method in brief: as §1

[10] = target: T10, Human opioid (ORL1) (Homo sapiens, UniProt P41146); assay: Radioligand binding, human opioid ORL1 membranes, FlashPlate, [125I]-Nociceptin; conditions: compound at 10 μM; for A10 radioligand binding inhibition: human ORL1 membranes
T10 construct: purchased Perkin Elmer Biosignal
Method in brief: as §1

[11] = target: T11, Mouse urotensin (mUR2) (Mus musculus, UniProt Q8VIH9); assay: Radioligand binding, mouse urotensin mUR2 membranes, FlashPlate, [125I]-Urotensin II; conditions: compound at 10 μM; for A11 radioligand binding inhibition: mouse urotensin mUR2 membranes
T11 construct: purchased Perkin Elmer Biosignal
T11 sequence (Q8VIH9 1-385): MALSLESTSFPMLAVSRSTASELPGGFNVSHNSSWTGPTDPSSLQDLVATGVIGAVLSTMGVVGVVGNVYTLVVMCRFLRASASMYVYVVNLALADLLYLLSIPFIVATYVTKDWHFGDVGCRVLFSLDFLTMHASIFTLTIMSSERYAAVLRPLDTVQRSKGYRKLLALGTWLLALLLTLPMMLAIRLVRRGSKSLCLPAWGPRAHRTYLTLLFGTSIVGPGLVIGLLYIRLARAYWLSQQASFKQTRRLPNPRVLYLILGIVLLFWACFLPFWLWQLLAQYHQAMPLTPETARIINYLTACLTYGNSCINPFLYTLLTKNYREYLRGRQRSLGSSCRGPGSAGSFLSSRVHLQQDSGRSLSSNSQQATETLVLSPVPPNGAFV
Method in brief: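 Cloned mouse urotensin (mUR2) receptor membranes from Perkin Elmer Biosignal were immobilized in FlashPlate microplates using a proprietary coating. Each well got 19.5 μl buffer, then 0.5 μl of DMSO, reference ligand, or compound. Adding 5 μl of [125I]-Urotensin II, diluted to 5× final concentration in binding buffer, started binding. Plates were sealed with TopSeal-A and incubated 1 hour at room temperature in the dark. Wells were counted for 30 seconds each on a TopCount after a 60-second delay, and percentage inhibition was calculated.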

T5 sequence (P33032 whole entry): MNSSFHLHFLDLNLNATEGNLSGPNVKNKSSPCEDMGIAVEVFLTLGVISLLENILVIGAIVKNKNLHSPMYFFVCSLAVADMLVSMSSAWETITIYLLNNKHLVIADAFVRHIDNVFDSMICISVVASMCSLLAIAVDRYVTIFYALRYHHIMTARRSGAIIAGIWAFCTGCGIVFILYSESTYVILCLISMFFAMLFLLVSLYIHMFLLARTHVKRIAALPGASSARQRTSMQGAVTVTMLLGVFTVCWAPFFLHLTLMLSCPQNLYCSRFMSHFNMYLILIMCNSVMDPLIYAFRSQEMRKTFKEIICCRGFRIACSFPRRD
T6 sequence (Q99705 whole entry): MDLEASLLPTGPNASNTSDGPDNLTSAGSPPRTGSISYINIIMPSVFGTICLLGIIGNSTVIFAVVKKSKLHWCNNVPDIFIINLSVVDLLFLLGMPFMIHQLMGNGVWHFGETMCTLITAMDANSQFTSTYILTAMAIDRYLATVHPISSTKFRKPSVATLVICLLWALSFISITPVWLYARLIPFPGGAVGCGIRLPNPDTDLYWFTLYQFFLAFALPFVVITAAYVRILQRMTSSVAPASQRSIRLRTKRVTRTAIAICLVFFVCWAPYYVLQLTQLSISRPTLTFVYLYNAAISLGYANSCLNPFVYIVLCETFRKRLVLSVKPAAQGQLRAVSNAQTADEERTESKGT
T1 sequence (P41143 whole entry): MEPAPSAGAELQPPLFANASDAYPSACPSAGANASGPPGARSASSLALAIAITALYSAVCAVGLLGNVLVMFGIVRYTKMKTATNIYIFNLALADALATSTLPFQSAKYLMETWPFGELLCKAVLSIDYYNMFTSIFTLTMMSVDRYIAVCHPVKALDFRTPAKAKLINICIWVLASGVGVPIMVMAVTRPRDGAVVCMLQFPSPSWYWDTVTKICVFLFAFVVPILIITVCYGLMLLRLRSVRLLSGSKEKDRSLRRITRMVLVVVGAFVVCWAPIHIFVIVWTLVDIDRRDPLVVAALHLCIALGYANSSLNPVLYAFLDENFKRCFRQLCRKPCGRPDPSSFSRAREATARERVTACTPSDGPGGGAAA
T10 sequence (P41146 whole entry): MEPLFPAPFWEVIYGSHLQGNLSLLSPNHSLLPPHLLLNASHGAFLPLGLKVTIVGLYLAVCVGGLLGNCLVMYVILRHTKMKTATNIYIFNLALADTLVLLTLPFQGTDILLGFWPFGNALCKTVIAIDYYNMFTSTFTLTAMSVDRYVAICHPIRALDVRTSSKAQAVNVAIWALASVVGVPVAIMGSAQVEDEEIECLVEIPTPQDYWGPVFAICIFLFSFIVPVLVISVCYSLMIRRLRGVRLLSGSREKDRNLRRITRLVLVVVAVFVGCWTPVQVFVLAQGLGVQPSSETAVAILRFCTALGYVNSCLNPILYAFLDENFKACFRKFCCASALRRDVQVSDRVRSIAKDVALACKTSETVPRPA
T8 sequence (P25103 whole entry): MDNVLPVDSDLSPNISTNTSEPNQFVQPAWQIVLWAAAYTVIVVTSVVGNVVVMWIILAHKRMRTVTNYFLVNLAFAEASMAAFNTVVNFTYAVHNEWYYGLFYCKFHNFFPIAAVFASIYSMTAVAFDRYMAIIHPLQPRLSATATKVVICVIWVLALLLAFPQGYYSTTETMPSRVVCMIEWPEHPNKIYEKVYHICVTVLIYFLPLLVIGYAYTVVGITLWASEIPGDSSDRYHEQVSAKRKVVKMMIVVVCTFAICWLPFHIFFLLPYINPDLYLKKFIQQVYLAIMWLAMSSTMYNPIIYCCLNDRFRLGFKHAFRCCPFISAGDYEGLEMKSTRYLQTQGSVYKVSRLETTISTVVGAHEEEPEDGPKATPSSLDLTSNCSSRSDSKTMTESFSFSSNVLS
T7 sequence (P35372 whole entry): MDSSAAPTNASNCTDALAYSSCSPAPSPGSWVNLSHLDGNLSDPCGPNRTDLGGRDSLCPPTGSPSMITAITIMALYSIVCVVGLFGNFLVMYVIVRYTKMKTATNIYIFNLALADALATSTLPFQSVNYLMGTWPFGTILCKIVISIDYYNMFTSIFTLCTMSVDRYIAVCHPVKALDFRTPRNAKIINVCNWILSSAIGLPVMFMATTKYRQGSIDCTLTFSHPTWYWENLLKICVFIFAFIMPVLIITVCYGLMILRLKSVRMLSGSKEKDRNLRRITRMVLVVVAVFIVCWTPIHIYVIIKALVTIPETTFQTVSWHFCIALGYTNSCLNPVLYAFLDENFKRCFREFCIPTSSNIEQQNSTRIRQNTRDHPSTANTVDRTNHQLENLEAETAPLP
T4 sequence (P32245 whole entry): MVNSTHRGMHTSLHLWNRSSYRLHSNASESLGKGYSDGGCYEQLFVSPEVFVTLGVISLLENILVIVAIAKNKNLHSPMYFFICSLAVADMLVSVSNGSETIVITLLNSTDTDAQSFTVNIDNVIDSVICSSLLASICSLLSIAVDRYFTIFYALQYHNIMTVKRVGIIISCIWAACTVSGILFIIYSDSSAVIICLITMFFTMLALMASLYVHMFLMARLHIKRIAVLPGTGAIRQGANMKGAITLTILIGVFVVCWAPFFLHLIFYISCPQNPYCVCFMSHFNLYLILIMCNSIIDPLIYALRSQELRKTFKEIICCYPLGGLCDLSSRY
T2 sequence (P41145 whole entry): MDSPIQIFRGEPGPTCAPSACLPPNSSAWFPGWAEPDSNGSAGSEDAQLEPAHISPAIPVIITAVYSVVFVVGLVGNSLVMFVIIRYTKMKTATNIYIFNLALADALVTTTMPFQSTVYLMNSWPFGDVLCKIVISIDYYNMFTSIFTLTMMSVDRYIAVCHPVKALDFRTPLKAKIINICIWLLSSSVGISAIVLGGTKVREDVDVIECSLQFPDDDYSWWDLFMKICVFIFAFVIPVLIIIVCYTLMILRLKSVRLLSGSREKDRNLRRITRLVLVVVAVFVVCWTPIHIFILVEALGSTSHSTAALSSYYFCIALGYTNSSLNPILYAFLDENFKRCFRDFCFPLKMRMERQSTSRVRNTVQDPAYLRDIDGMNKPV
T3 sequence (P41968 whole entry): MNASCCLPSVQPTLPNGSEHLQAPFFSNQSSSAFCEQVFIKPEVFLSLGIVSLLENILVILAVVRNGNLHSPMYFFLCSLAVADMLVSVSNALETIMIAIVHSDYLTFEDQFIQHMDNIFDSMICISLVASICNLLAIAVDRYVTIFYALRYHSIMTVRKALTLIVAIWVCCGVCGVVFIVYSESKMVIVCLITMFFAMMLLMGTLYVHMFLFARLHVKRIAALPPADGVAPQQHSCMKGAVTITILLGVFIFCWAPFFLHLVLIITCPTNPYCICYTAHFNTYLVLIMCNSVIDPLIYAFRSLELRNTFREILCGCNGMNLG

| SMILES | A1 radioligand binding inhibition [1] | A2 radioligand binding inhibition [2] | A3 radioligand binding inhibition [3] | A4 radioligand binding inhibition [4] | A5 radioligand binding inhibition [5] | A6 radioligand binding inhibition [6] | A7 radioligand binding inhibition [7] | A8 radioligand binding inhibition [8] | A9 radioligand binding inhibition [9] | A10 radioligand binding inhibition [10] | A11 radioligand binding inhibition [11] | also measured |
| --- | --- | --- | --- | --- | --- | --- | --- | --- | --- | --- | --- | --- |
| COC[C@H]1OC(OCCc2ccccc2)[C@H](NC(=O)CNC(=N)N)[C@@H](OCc2ccc(Cl)cc2)[C@@H]1O (stereo partly drawn) [compound 48] | − (“−” indicates less than 50% inhibition at 10 μM) | − (“−” indicates less than 50% inhibition at 10 μM) | − (“−” indicates less than 50% inhibition at 10 μM) | + (“+” indicates greater than 50% inhibition at 10 μM) | + (“+” indicates greater than 50% inhibition at 10 μM) | + (“+” indicates greater than 50% inhibition at 10 μM) | − (“−” indicates less than 50% inhibition at 10 μM) | − (“−” indicates less than 50% inhibition at 10 μM) | − (“−” indicates less than 50% inhibition at 10 μM) | − (“−” indicates less than 50% inhibition at 10 μM) | − (“−” indicates less than 50% inhibition at 10 μM) | – |
| COC[C@H]1OC(OCc2ccc3ccccc3c2)[C@H](NC(=O)CNC(=N)N)[C@@H](OCc2ccc(-c3ccccc3)cc2)[C@@H]1O (stereo partly drawn) [compound 15] | − (“−” indicates less than 50% inhibition at 10 μM) | − (“−” indicates less than 50% inhibition at 10 μM) | − (“−” indicates less than 50% inhibition at 10 μM) | + (“+” indicates greater than 50% inhibition at 10 μM) | + (“+” indicates greater than 50% inhibition at 10 μM) | + (“+” indicates greater than 50% inhibition at 10 μM) | + (“+” indicates greater than 50% inhibition at 10 μM) | − (“−” indicates less than 50% inhibition at 10 μM) | − (“−” indicates less than 50% inhibition at 10 μM) | − (“−” indicates less than 50% inhibition at 10 μM) | − (“−” indicates less than 50% inhibition at 10 μM) | – |
| NCCC(=O)NC1C(OCc2ccccc2)OC(COCc2ccccc2)C(O)C1OCc1ccc2ccccc2c1 (stereo not drawn) [compound 367] | – | – | – | – | – | – | – | – | – | – | – | A1: inhibition of radioligand binding, human δ-opioid (DOP) ([1]; [3H]-Bremazocine): − (“−” indicates less than 50% inhibition at 10 μM); A2: inhibition of radioligand binding, human κ-opioid (KOP) ([2]; [3H]-Diprenorphine): − (“−” indicates less than 50% inhibition at 10 μM); A3: inhibition of radioligand binding, human melanocortin (MC3) ([3]; [125I]-NDP-αMSH): − (“−” indicates less than 50% inhibition at 10 μM); A4: inhibition of radioligand binding, human melanocortin (MC4) ([4]; [125I]-NDP-αMSH): + (“+” indicates greater than 50% inhibition at 10 μM); A5: inhibition of radioligand binding, human melanocortin (MC5) ([5]; [125I]-NDP-αMSH): + (“+” indicates greater than 50% inhibition at 10 μM); A6: inhibition of radioligand binding, human melanin-concentrating hormone (MCH1) ([6]; [125I]-S36057): − (“−” indicates less than 50% inhibition at 10 μM); A7: inhibition of radioligand binding, human μ-opioid (MOP) ([7]; [3H]-Naloxone): − (“−” indicates less than 50% inhibition at 10 μM); A8: inhibition of radioligand binding, human neurokinin (NK1) ([8]; [125I]-Substance P): + (“+” indicates greater than 50% inhibition at 10 μM); A9: inhibition of radioligand binding, human neuropeptide Y (NPY-Y1) ([9]; [125I]-PYY): − (“−” indicates less than 50% inhibition at 10 μM); A10: inhibition of radioligand binding, human opioid (ORL1) ([10]; [125I]-Nociceptin): − (“−” indicates less than 50% inhibition at 10 μM); A11: inhibition of radioligand binding, mouse urotensin (mUR2) ([11]; [125I]-Urotensin II): − (“−” indicates less than 50% inhibition at 10 μM) |
